Counter-ions that a name gives are not always drawn.
biological target: T1, MPO (purified from human polynuclear leukocytes) (Homo sapiens, UniProt P05164); test: MPO Amplex Red Activity Assay; format: biochemical; conditions: Table 1, 2 μM H2O2, pH 7.4
T1 construct: purified from human polynuclear leukocytes; purchased Calbiochem/EMD Biosciences; host or cells: human polynuclear leukocytes (natural source)
Description: MPO Amplex Red Activity Assay.
MPO peroxidase activity was measured by monitoring the formation of resorufin generated from the oxidation of Amplex Red (10-Acetyl-3,7-dihydroxyphenoxazine) (Invitrogen, Carlsbad, Calif.) by MPO (Gomes, Fernandes et al. 2005). Assay mixtures (100 μL total volume) contained 50 mM NaPi pH 7.4, 150 mM NaCl, 1 mM DTPA (diethylenetriaminepentaacetic acid), 2% DMSO, 2 μM H2O2, 30 μM Amplex Red and the reaction was initiated by the addition of […] (purified from human polynuclear leukocytes and purchased from Calbiochem/EMD Biosciences, Gibbstown, N.J.). All assays were performed in 96-well, half-area, black, nonbinding surface, polystyrene plates (Corning) and the production of resorufin (excitation 530 nm, emission 580 nm) was monitored every 20 sec on a Spectramax M2 Microplate Spectrophotometer (Molecular Devices, Palo Alto, Calif.) equipped with Softmax Pro software (Molecular Devices, Palo Alto, Calif.). Reactions to determine the background reaction rate consisted of all assay components and 4 μL of 500 unit/mL bovine catalase (Sigma) in 50 mM KPi pH 7.0. The background rate was subtracted from each reaction progress curve. All data was analyzed using non-linear regression analysis in Microsoft Excel and Kaleidagraph (Synergy Software).
To determine inhibitor potency (kinact/KI) against MPO, the first 600 sec of the reaction progress curves were fit to equation 1, where Vo is the initial rate in RFU/sec and t is time in seconds, to obtain the first order rate constant for enzyme inactivation (kobs) at each inhibitor concentration.
[formula] Equation 1 is a variation of the standard equation for slow binding inhibition where the steady state velocity (Vs) is set to zero. Each kobs value was corrected for auto-inactivation of the enzyme by subtracting the kobs value for the uninhibited reaction. The corrected kobs values were then plotted versus inhibitor concentration ([I]) and fit to equation 2
[formula] where kinact is the maximal rate of inactivation and KI is the inhibitor concentration that yields half the rate of maximal inactivation (Copeland 2005).
Table 1 and (1A) below provides the myeloperoxidase inhibitory activity for the Examples below in accordance with the above-described assay.

T1 sequence (P05164 279-745 limits assumed): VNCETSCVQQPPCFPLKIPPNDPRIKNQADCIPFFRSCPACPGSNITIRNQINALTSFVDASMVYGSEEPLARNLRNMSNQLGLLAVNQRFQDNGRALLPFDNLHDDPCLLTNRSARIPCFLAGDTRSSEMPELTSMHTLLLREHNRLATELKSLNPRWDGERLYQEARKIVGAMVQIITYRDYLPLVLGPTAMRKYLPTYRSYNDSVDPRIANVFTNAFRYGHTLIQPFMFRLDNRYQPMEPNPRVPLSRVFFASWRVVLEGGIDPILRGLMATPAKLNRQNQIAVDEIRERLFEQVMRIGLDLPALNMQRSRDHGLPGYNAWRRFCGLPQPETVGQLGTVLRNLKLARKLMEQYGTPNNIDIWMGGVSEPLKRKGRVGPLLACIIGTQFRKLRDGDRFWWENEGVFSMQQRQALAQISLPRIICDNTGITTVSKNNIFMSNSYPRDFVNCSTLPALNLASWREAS
T1 sequence (P05164 165-273 limits assumed): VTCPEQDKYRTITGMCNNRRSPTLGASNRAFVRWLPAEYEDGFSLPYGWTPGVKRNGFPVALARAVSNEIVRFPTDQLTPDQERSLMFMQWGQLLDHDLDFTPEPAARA

| Compound | MPO kinact/Ki |
| --- | --- |
| COc1ccc(-c2cc(=O)[nH]c(=S)n2CCCCN)c(OC)c1 [Example 191, 1-(4-aminobutyl)-6-(2,4-dimethoxyphenyl)-2-thioxo-2,3-dihydropyrimidin-4(1H)-one hydrochloride] | 14100 1/s per M |
| COc1ccccc1-c1cc(=O)[nH]c(=S)n1CCCN [Example 18, 1-(3-aminopropyl)-6-(2-methoxyphenyl)-2-thioxo-2,3-dihydropyrimidin-4(1H)-one hydrochloride] | 8280 1/s per M |
| O=c1cc(-c2cccc3c2OCCO3)n(CCO)c(=S)[nH]1 [Example 47, 6-(2,3-dihydro-1,4-benzodioxin-5-yl)-1-(2-hydroxyethyl)-2-thioxo-2,3-dihydropyrimidin-4(1H)-one] | 2340 1/s per M |
| COc1ccc(-c2cc(=O)[nH]c(=S)n2C[C@@H]2CCCNC2)c(OC)c1 [Example 151, 6-(2,4-dimethoxyphenyl)-1-[(3R)-piperidin-3-ylmethyl]-2-thioxo-2,3-dihydropyrimidin-4(1H)-one hydrochloride] | 3740 1/s per M |
| COc1ccc(Cl)cc1-c1cc(=O)[nH]c(=S)n1C[C@H]1CCCN1 [Example 122, 6-(5-chloro-2-methoxyphenyl)-1-[(2R)-pyrrolidin-2-ylmethyl]-2-thioxo-2,3-dihydropyrimidin-4(1H)-one hydrochloride] | 9310 1/s per M |
| NCCCn1c(-c2ccc3c(c2)CCO3)cc(=O)[nH]c1=S [Example 38, 1-(3-aminopropyl)-6-(2,3-dihydro-1-benzofuran-5-yl)-2-thioxo-2,3-dihydropyrimidin-4(1H)-one hydrochloride] | 5240 1/s per M |
| COCCn1c(-c2cccc3c2OCCO3)cc(=O)[nH]c1=S [Example 80, 6-(2,3-dihydro-1,4-benzodioxin-5-yl)-1-(2-methoxyethyl)-2-thioxo-2,3-dihydropyrimidin-4(1H)-one] | 4130 1/s per M |
| COCCn1c(-c2ccn[nH]2)cc(=O)[nH]c1=S [Example 278, 1-(2-methoxyethyl)-6-(1H-pyrazol-5-yl)-2-thioxo-2,3-dihydropyrimidin-4(1H)-one] | 1560 1/s per M |
| COc1cc(OC)cc(-c2cc(=O)[nH]c(=S)n2CCCN)c1 [Example 85, 1-(3-aminopropyl)-6-(3,5-dimethoxyphenyl)-2-thioxo-2,3-dihydropyrimidin-4(1H)-one hydrochloride] | 10700 1/s per M |
| COCCn1c(-c2ccnc(OC)c2)cc(=O)[nH]c1=S [Example 297, 1-(2-methoxyethyl)-6-(2-methoxypyridin-4-yl)-2-thioxo-2,3-dihydropyrimidin-4(1H)-one] | 762 1/s per M |
| COc1ccc(-c2cc(=O)[nH]c(=S)n2C[C@@H](C)N)c(OC)c1 [Example 175, 1-[(2R)-2-aminopropyl]-6-(2,4-dimethoxyphenyl)-2-thioxo-2,3-dihydropyrimidin-4(1H)-one hydrochloride] | 459 1/s per M |
| COc1ccc(Cl)cc1-c1cc(=O)[nH]c(=S)n1CC(N)=O [Example 1, 2-(6-(5-Chloro-2-methoxyphenyl)-4-oxo-2-thioxo-3,4-dihydropyrimidin-1(2H)-yl)acetamide] | 11600 1/s per M |
| COc1ccc(-c2cc(=O)[nH]c(=S)n2CCN)c(OC)c1 [Example 6, 1-(2-aminoethyl)-6-(2,4-dimethoxyphenyl)-2-thioxo-2,3-dihydropyrimidin-4(1H)-one hydrochloride] | 12900 1/s per M |
| CNCCCn1c(-c2ccc(OC)cc2OC)cc(=O)[nH]c1=S [Example 192, 6-(2,4-dimethoxyphenyl)-1-[3-(methylamino)propyl]-2-thioxo-2,3-dihydropyrimidin-4(1H)-one hydrochloride] | 10800 1/s per M |
| NCCCn1c(-c2n[nH]c3ccccc23)cc(=O)[nH]c1=S [Example 32, 1-(3-aminopropyl)-6-(1H-indazol-3-yl)-2-thioxo-2,3-dihydropyrimidin-4(1H)-one formate] | 2120 1/s per M |
| COCCn1c(-c2nc(C)ccc2OC)cc(=O)[nH]c1=S [Example 49, 1-(2-methoxyethyl)-6-(3-methoxy-6-methylpyridin-2-yl)-2-thioxo-2,3-dihydropyrimidin-4(1H)-one] | 2230 1/s per M |
| COCCn1c(-c2cc(Cl)cnc2OC)cc(=O)[nH]c1=S [Example 96, 6-(5-chloro-2-methoxypyridin-3-yl)-1-(2-methoxyethyl)-2-thioxo-2,3-dihydropyrimidin-4(1H)-one] | 2200 1/s per M |
| COCCn1c(-c2cc(OC)c(C)cc2OC)cc(=O)[nH]c1=S [Example 275, 6-(2,5-dimethoxy-4-methylphenyl)-1-(2-methoxyethyl)-2-thioxo-2,3-dihydropyrimidin-4(1H)-one] | 4730 1/s per M |
| COCCn1c(-c2cc(F)ccc2OC)cc(=O)[nH]c1=S [Example 317, 6-(5-fluoro-2-methoxyphenyl)-1-(2-methoxyethyl)-2-thioxo-2,3-dihydropyrimidin-4(1H)-one] | 7380 1/s per M |
| COc1ccc(-c2cc(=O)[nH]c(=S)n2CCC(N)=O)c(OC)c1 [Example 189, 3-[6-(2,4-dimethoxyphenyl)-4-oxo-2-thioxo-3,4-dihydropyrimidin-1(2H)-yl]propanamide] | 2210 1/s per M |
| COc1ccc(-c2cc(=O)[nH]c(=S)n2C[C@H]2CCCN2)c(OC)c1 [Example 267, 6-(2,4-dimethoxyphenyl)-1-[(2R)-pyrrolidin-2-ylmethyl]-2-thioxo-2,3-dihydropyrimidin-4(1H)-one hydrochloride] | 3840 1/s per M |
| COCCn1c(-c2ccccc2O)cc(=O)[nH]c1=S [Example 288, 6-(2-hydroxyphenyl)-1-(2-methoxyethyl)-2-thioxo-2,3-dihydropyrimidin-4(1H)-one] | 4230 1/s per M |
| NCCOc1ccccc1-c1cc(=O)[nH]c(=S)n1CCO [Example 52, 6-[2-(2-aminoethoxy)phenyl]-1-(2-hydroxyethyl)-2-thioxo-2,3-dihydropyrimidin-4(1H)-one formate] | 33.4 1/s per M |
| COc1ccc(-c2cc(=O)[nH]c(=S)n2CCNCC(N)=O)c(OC)c1 [Example 242, N~2~-{2-[6-(2,4-dimethoxyphenyl)-4-oxo-2-thioxo-3,4-dihydropyrimidin-1(2H)-yl]ethyl}glycinamide] | 142 1/s per M |
| COc1ccc(-c2cc(=O)[nH]c(=S)n2CCC2CCNCC2)c(OC)c1 [Example 152, 6-(2,4-dimethoxyphenyl)-1-(2-piperidin-4-ylethyl)-2-thioxo-2,3-dihydropyrimidin-4(1H)-one hydrochloride] | 4770 1/s per M |
| COc1ccc(-c2cc(=O)[nH]c(=S)n2CCNC(=O)CN)c(OC)c1 [Example 8, 2-amino-N-(2-(6-(2,4-dimethoxyphenyl)-4-oxo-2-thioxo-3,4-dihydropyrimidin-1(2H)-yl)ethyl)acetamide hydrochloride] | 12100 1/s per M |

same assay, conditions: Table 1A, 2 μM H2O2, pH 7.4

| Compound | MPO kinact/Ki |
| --- | --- |
| CCCNC(=O)Cn1c(-c2ccc(OC)cc2OC)cc(=O)[nH]c1=S [Example 435, 2-[6-(2,4-dimethoxyphenyl)-4-oxo-2-thioxo-3,4-dihydropyrimidin-1(2H)-yl]-N-propylacetamide] | 2420 1/s per M |
| COc1ccc(-c2cc(=O)[nH]c(=S)n2CC(=O)N[C@@H]2CCNC2)c(OC)c1 [Example 388, 2-[6-(2,4-dimethoxyphenyl)-4-oxo-2-thioxo-3,4-dihydropyrimidin-1(2H)-yl]-N-[(3R)-pyrrolidin-3-yl]acetamide] | 8690 1/s per M |
| CNCCNC(=O)Cn1c(-c2ccc(OC)cc2OC)cc(=O)[nH]c1=S [Example 391, 2-[6-(2,4-dimethoxyphenyl)-4-oxo-2-thioxo-3,4-dihydropyrimidin-1(2H)-yl]-N-[2-(methylamino)ethyl]acetamide] | 3480 1/s per M |
| COc1ccc(-c2cc(=O)[nH]c(=S)n2CC(=O)N[C@H]2CCNC2)c(OC)c1 [Example 393, 2-[6-(2,4-dimethoxyphenyl)-4-oxo-2-thioxo-3,4-dihydropyrimidin-1(2H)-yl]-N-[(3S)-pyrrolidin-3-yl]acetamide] | 13600 1/s per M |
| COc1ccc(Cl)cc1-c1cc(=O)[nH]c(=S)n1CCCNS(C)(=O)=O [Example 353, N-{3-[6-(5-chloro-2-methoxyphenyl)-4-oxo-2-thioxo-3,4-dihydropyrimidin-1(2H)-yl]propyl}methanesulfonamide] | 11000 1/s per M |
| COc1ccc(OC)c(-c2cc(=O)[nH]c(=S)n2CC(=O)NCCN)c1 [Example 370, N-(2-aminoethyl)-2-[6-(2,5-dimethoxyphenyl)-4-oxo-2-thioxo-3,4-dihydropyrimidin-1(2H)-yl]acetamide] | 9060 1/s per M |

— patent US9399626B2, “2-thiopyrimidinones” (Pfizer Inc., priority 2011, dated 2016)
